Experiments:
[1] = log P determination by HPLC on reversed-phase columns (C 18), analogous to OECD Guideline 117; type: physicochemical; details: for logP[a]: method [a]; for logP[b]: method [b]
Method in brief: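 Reversed-phase C18 HPLC per OECD 117, two conditions: [a] pH 2.7, 0.1% formic acid water/acetonitrile, log P(HCOOH); [b] pH 7.8, 0.001 M ammonium hydrogencarbonate/acetonitrile, log P(neutral). Both use a 10–95% acetonitrile gradient; values are interpolated from retention times against C3–C16 unbranched alkan-2-ones.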

Phaedon cochleariae = Phaedon cochleariae - spray test; type: in vivo; details: 500 g/ha, Chinese cabbage leaf discs, after 7 days
Procedure: 4. Phaedon cochleariae—Spray Test
Solvent: 78.0 parts by weight of acetone
• 1.5 parts by weight of dimethylformamide Emulsifier: alkylaryl polyglycol ether
(§1) To produce a suitable preparation of active compound, 1 part by weight of active compound is dissolved using the stated parts by weight of solvent and made up with water containing an emulsifier concentration of 1000 ppm until the desired concentration is attained. To produce further test concentrations, the preparation is diluted with emulsifier-containing water.
After 7 days, the efficacy in % is determined. 100% means that all the beetle larvae have been killed; 0% means that no beetle larvae have been killed.

Tetranychus urticae [2] = assay: Tetranychus urticae - spray test, OP-resistant (bean leaf discs, 6 days); type: in vivo; details: 500 g/ha, after 6 days
Method in brief: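 Bean leaf discs carrying all stages of OP-resistant Tetranychus urticae were sprayed with compound formulated in acetone/DMF and diluted in water with 1000 ppm emulsifier. Mortality was scored after 6 days as % efficacy, where 100% means all mites were killed.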

Meloidogyne incognita = Meloidogyne incognita - test; type: in vivo; details: 20 ppm, lettuce, after 14 days
Boophilus microplus = Boophilus microplus - injection test; type: in vivo; details: 20 μg/animal, injection into engorged adult female cattle ticks, assessed after 7 days
Procedure: 1. Boophilus microplus—Injection Test
Solvent: dimethyl sulphoxide
To produce a suitable preparation of active compound, 10 mg of active compound are mixed with 0.5 ml of solvent and the concentrate is diluted with solvent to the desired concentration.
1 μl of the active compound solution is injected into the abdomen of 5 engorged adult female cattle ticks (Boophilus microplus). The animals are transferred into dishes and kept in a climate-controlled room.
Efficacy is assessed after 7 days by laying of fertile eggs. Eggs which are not visibly fertile are stored in a climate-controlled cabinet until the larvae hatch after about 42 days. An efficacy of 100% means that none of the ticks has laid any fertile eggs; 0% means that all the eggs are fertile.

Tetranychus urticae [3] = assay: Tetranychus urticae - spray test, OP-resistant (bean plants, 7 days); type: in vivo; details: 20 ppm, after 7 days
Procedure: 6. Tetranychus urticae—Spray Test, OP-Resistant
Solvent: 7 parts by weight of dimethylformamide
Emulsifier: alkylaryl polyglycol ether
as §1, with “water. If the addition of ammonium salts or/and penetrants is required, these are each added in a concentration of 1000 ppm to the formulation solution.” for “water.”
Bean plants (Phaseolus vulgaris) heavily infested by all stages of the greenhouse red spider mite (Tetranychus urticae) are treated by spraying with the active compound preparation of the desired concentration.
After 7 days, the efficacy in % is determined. 100% means that all the spider mites have been killed; 0% means that no spider mites have been killed.

Myzus persicae = Myzus persicae - spray test; type: in vivo; details: 500 g/ha, Chinese cabbage leaf discs, after 6 days
Procedure: 3. Myzus persicae—Spray Test Solvent: 78 parts by weight of acetone • • 1.5 parts by weight of dimethylformamide Emulsifier: alkylaryl polyglycol ether To produce a suitable preparation of active compound, 1 part by weight of active compound is dissolved using the stated parts by weight of solvent and made up with water containing an emulsifier concentration of 1000 ppm until the desired concentration is attained. To produce further test concentrations, the preparation is diluted with emulsifier-containing water. Discs of Chinese cabbage leaves (Brassica pekinensis) infested by all stages of the green peach aphid (Myzus persicae) are sprayed with an active compound preparation of the desired concentration. After 6 days, the efficacy in % is determined. 100% means that all the aphids have been killed; 0% means that no aphids have been killed.

| SMILES | logP[a] [1] | logP[b] [1] | efficacy (beetle larvae killed) (Phaedon cochleariae) | efficacy (spider mites killed) (Tetranychus urticae [2]) | nematicidal efficacy (formation of galls) (Meloidogyne incognita) | efficacy (laying of fertile eggs) (Boophilus microplus) | efficacy (spider mites killed) (Tetranychus urticae [3]) | efficacy (aphids killed) (Myzus persicae) |
| --- | --- | --- | --- | --- | --- | --- | --- | --- |
| Cc1cc(F)c(N2C(=O)CN(C(=O)NCC(F)(F)F)C2=O)cc1[S+]([O-])CC(F)(F)F (single isomer, unassigned) [Ex. No. 136] | 2.4 | 2.43 | – | – | – | – | 100% | – |
| Cc1cc(F)c(N2C(=O)CN(C(=O)Nc3cccc(CC(F)(F)F)c3)C2=O)cc1[S+]([O-])CC(F)(F)F (centres unmarked) [compound 43] | 3.45 | 3.41 | 83% | 100% | 100% | 100% | – | – |
| CCC(C)NC(=O)N1CC(=O)N(c2cc(SCC(F)(F)F)c(C)cc2F)C1=O (centres unmarked) [compound 44] | 3.64 | 3.58 | 100% | 100% | – | – | – | – |
| Cc1cc(F)c(N2C(=O)CN(C(=O)Nc3cccc(F)c3)C2=O)cc1[S+]([O-])CC(F)(F)F (centres unmarked) [compound 46] | 3.02 | 2.97 | – | 100% | – | 100% | – | 90% |
| Cc1cc(F)c(N2C(=O)CN(C(=O)Nc3cccc(Cl)c3)C2=O)cc1[S+]([O-])CC(F)(F)F (centres unmarked) [compound 48] | 3.31 | 3.25 | 83% | 100% | 90% | 100% | – | – |

Continued, in another order:

| logP[a] [1] | logP[b] [1] | SMILES | efficacy (beetle larvae killed) (Phaedon cochleariae) | efficacy (spider mites killed) (Tetranychus urticae [2]) | nematicidal efficacy (formation of galls) (Meloidogyne incognita) | efficacy (laying of fertile eggs) (Boophilus microplus) | efficacy (spider mites killed) (Tetranychus urticae [3]) | efficacy (aphids killed) (Myzus persicae) |
| --- | --- | --- | --- | --- | --- | --- | --- | --- |
| 3.68 | 3.64 | Cc1cc(Cl)c(N2C(=O)CN(C(=O)Nc3cccc(CC(F)(F)F)c3)C2=O)cc1[S+]([O-])CC(F)(F)F (racemic) [compound 71] | 100% | 100% | 90% | – | – | – |
| 3.55 | 3.50 | Cc1cc(Cl)c(N2C(=O)CN(C(=O)Nc3cccc(Cl)c3)C2=O)cc1[S+]([O-])CC(F)(F)F (racemic) [compound 72] | 100% | 100% | 90% | 100% | – | – |
| 3.55 | 3.56 | Cc1cc(F)c(N2C(=O)C(C)N(C(=O)NCC(F)(F)F)C2=O)cc1SCC(F)(F)F (racemic) [compound 79] | 100% | 100% | – | 100% | – | – |
| 3.51 | 3.40 | Cc1cc(Cl)c(N2C(=O)CN(C(=O)NCC(F)(F)F)C2=O)cc1SCC(F)(F)F [compound 53] | 83% | 100% | – | – | – | – |
| 3.84 | 3.71 | Cc1cc(F)c(N2C(=O)CN(C(=O)NC(C)(C)C)C2=O)cc1SCC(F)(F)F [compound 54] | 100% | 100% | 100% | 100% | – | – |
| 4.09 | 3.96 | CCC(C)(C)NC(=O)N1CC(=O)N(c2cc(SCC(F)(F)F)c(C)cc2F)C1=O [compound 101] | 83% | 100% | 90% | – | – | – |
| 3.5 | 3.53 | O=C(NCC(F)(F)F)N1CC(=O)N(c2cc(SCC(F)(F)F)c(Cl)cc2Cl)C1=O [compound 106] | 83% | 100% | – | – | – | – |

From patent US10206398B2, “Five-membered C-N-attached aryl sulphide and aryl sulphoxide derivatives as pesticides” (BAYER CROPSCIENCE AKTIENGESELLSCHAFT, priority 2014, dated 2019)
